The subject of one test is EAE mice. The test can be described thus: Experimental autoimmune encephalomyelitis (EAE) mouse model, clinical scoring. The test is classed as in vivo, C57BL/6 female mice. The source says: C57BL/6 female mice (Charles River) at age 10-12 weeks were acclimatized for 7 days prior to inducing experimental autoimmune encephalomyelitis (EAE). EAE was induced using the EAE kit (Hooke Laboratories, Cat. No: EK-2110) according to the Hooke Laboratories protocol (on the world wide web at hookelabs.com/protocols/eaeAI_C57BL6.html). Briefly, mice were immunized by an emulsion of MOG35-55 in complete Freund's adjuvant (CFA) injected subcutaneously at two sites (Day 0), followed by administration of pertussis toxin (PTX) intraperitoneally, first on the day of immunization (Day 0), and then again the following day (Day 1). Approximately 115 ng of PTX for each of the two PTX administrations were used.
The mice were scored blindly and daily from EAE Day 7 until at least EAE Day 30 according to the protocol from Hooke Laboratories. The scoring system used was as follows: 0.0=no obvious changes in motor function; 0.5=tip of tail is limp; 1.0=limp tail; 1.5=limp tail and hind leg inhibition; 2.0=limp tail and weakness of hind legs or signs of head tilting; 2.5=limp tail and dragging of hind legs or strong head tilting; 3.0=limp tail and complete paralysis of hind legs or limp tail with paralysis of one front and one hind leg; 3.5=limp tail and complete paralysis of hind legs plus mouse unable to right itself when placed on its side; 4.0=limp tail, complete hind leg and partial front leg paralysis, mouse is minimally moving but appears alert and feeding; 4.5=complete hind and partial front leg paralysis, no movement around the cage, mouse is not alert; 5.0=mouse is found dead due to paralysis or mouse is euthanized due to severe paralysis
The clinical scores and weight of mice were recorded daily until the end of experiment. […] For each experiment, 8 to 10 mice from each group were analyzed.
EAE mice were treated with L-type amino acid transporter 1 (LAT1) inhibitor JPH203 dihydrochloride starting at scores 1.0 and 3.0. […] Clinical scores of the animals from each group were recorded at 1-7 days after the first injection.

Test [1] deals with CNS lesions (lysolecithin-induced focal demyelination). The test can be described thus: Lysolecithin-induced focal demyelination of the spinal cord, immunohistochemistry of lesions. The test is classed as in vivo, mice. The method, then: Focal demyelination was induced by injecting 1% lysolecithin (Sigma-Aldrich) into the spinal cord ventral funiculus of 8-12 weeks old C57B1/6 mice of either sex. At 5 and 10 days post lesion (dpl), mice were perfused intracardially with 4% (w/v) paraformaldehyde (PFA; Sigma). To perform IHC, mice were perfusion-fixed with 4% PFA (Sigma). Spinal cords were dissected and postfixed for 30 min in 4% PFA at 4° C. and cryoprotected in 20% (w/v) sucrose (Sigma) in PBS overnight before freezing in O.C.T. on the surface of dry ice. Twelve-micrometer-thick spinal cord sections were cut using cryostat (Leica CM1900), collected on SuperFrostPlus slides (VWR International), and allowed to dry for 30 min before storing at −80° C. For IHC, sections were incubated in blocking solution (0.1% Triton™ X-100 and 10% FBS in PBS) for 1 h at room temperature (RT). Primary antibodies were diluted in blocking solution and applied overnight at 4° C. Fluorescent dye-conjugated secondary antibodies were obtained from Life Technologies and used according to the manufacturer's instruction. Focal demyelination was induced by injecting 1% lysolecithin, JPH203 or PBS control was injected via intraperitoneal from 5-9 dpl. Mice were sacrificed at 10 dpl by intracardial perfusion with 4% PFA (Sigma). IHC was performed as previously described. Twelve-micrometer-thick fixed spinal cord sections were cut using cryostat (Leica CM1900), collected on SuperFrostPlus slides (VWR International), and allowed to dry for 30 min before storing at −80° C. For IHC, sections were incubated in blocking solution (0.1% Triton™ X-100 and 10% FBS in PBS) for 1 h at room temperature (RT). Primary antibodies were diluted in blocking solution and applied overnight at 4° C. Sources and dilutions of primary antibodies were as follows: rabbit anti-Olig2 (1:300; Millipore), mouse anti-CC1 (1:200; Sigma). Fluorescent dye-conjugated secondary antibodies were obtained from Life Technologies and used according to the manufacturer's instruction. Antigen retrieval was used for Olig2 and mouse on mouse antigen retrieval with M.O.M.™ kit (Vector Laboratories) for CC1. DAPI nuclear counterstain was used before mounting sections with fluoromount-G (Southern-Biotech). ImageJ (NIH) was used to quantify Olig2+ CC1+ cells.

Regarding `Nc1cc(COc2c(Cl)cc(C[C@H](N)C(=O)O)cc2Cl)c2oc(-c3ccccc3)nc2c1` [JPH203, (S)-2-Amino-3-(4-((5-amino-2-phenylbenzo[d]oxazol-7-yl)methoxy)-3,5-dichlorophenyl) propanoic acid], in the test with EAE mice (prophylactic treatment starting at score 1.0, PBS controls progressed to score 3.0 or higher, FIG. 2B), the “progression of EAE to higher scores” value is on record as “prevented progression of EAE to higher scores”. In the test on EAE mice (treatment starting at clinical score 1.0, 25 mg/kg intraperitoneal daily for 5 days, compared to PBS control, FIG. 2B), the “motor recovery (clinical score), prophylactic efficacy” value was “motor recovery”. Besides, the “motor recovery (clinical score), treatment efficacy” value with EAE mice (treatment starting at clinical score 3.0, 25 mg/kg intraperitoneal daily for 5 days, compared to PBS control, FIG. 2A) is listed as “motor recovery”. The “macrophage morphology in lesion at higher magnification” value in test [1] (10 dpl, control lesion macrophages rounded amoeboid/foamy, FIG. 3F/3G) is recorded as “more ramified appearance, indicating reduced inflammatory activity”. In test [1] (10 dpl, versus control lesion, FIG. 3F/3G), the “iNOS labeling of macrophages at higher magnification” value was “very little iNOS labeling”. For the same compound, in test [1] (intraperitoneal injection 5-9 dpl, analysis at 10 dpl, compared to PBS control, FIG. 3A/3B), the “number of mature oligodendrocytes in lesions” value is on record as “increased number of mature oligodendrocytes in lesions”. The “increase in oligodendrocytes (Olig2+ CC1+ cells), quantification” value in test [1] (intraperitoneal injection 5-9 dpl, analysis at 10 dpl, versus PBS control, FIG. 3C, P<0.05) is 2 fold. Besides, in test [1] (intraperitoneal injection 5-9 dpl, analysis at 10 dpl, versus PBS treated lesion, FIG. 3D/3E), the “pro-inflammatory iNOS expression in lesion (Iba1+iNOS+ microglia/macrophages)” value is reported as “dramatically reduced pro-inflammatory iNOS expression”.
